Measured values: ChEMBL document CHEMBL1201861, “Genomics of Drug Sensitity in Cancer screening data, Wellcome Trust Sanger Institute”

Tests used:
Assay in all cases: cells
CW-2 = format: functional, cell-based, Homo sapiens; conditions: Homo sapiens, CW-2;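 note: growth inhibition of CW-2 cells, read out by a cell viability assay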
Description: SANGER: Inhibition of human CW-2 cell growth in a cell viability assay.

D-336MG = format: functional, cell-based, Homo sapiens; conditions: Homo sapiens, D-336MG
Description: SANGER: Inhibition of human D-336MG cell growth in a cell viability assay.

DOHH-2 = format: functional, cell-based; conditions: Homo sapiens;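 note: growth inhibition of human DOHH-2 cells, read out with a cell viability assay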
Description: SANGER: Inhibition of human DOHH-2 cell growth in a cell viability assay.

EM-2 = format: functional, cell-based; conditions: Homo sapiens;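 note: growth inhibition of EM-2 cells, read out with a cell viability assay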
Description: SANGER: Inhibition of human EM-2 cell growth in a cell viability assay.

EW-3 = format: functional, cell-based; conditions: Homo sapiens;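 note: cell viability assay read-out, IC50 reflects inhibition of growth of the EW-3 cells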
Description: SANGER: Inhibition of human EW-3 cell growth in a cell viability assay.

GT3TKB = format: functional, cell-based, Homo sapiens; conditions: Homo sapiens, GT3TKB;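 note: growth inhibition of the cell line, read out with a cell viability assay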
Description: SANGER: Inhibition of human GT3TKB cell growth in a cell viability assay.

HCC2218 = format: functional, cell-based; conditions: Homo sapiens;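 note: cell viability assay read-out, with IC50 given as the concentration that inhibits growth of the cell line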
Description: SANGER: Inhibition of human HCC2218 cell growth in a cell viability assay.

KGN = format: functional, cell-based, Homo sapiens; conditions: Homo sapiens, KGN;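 note: growth inhibition of KGN cells, read out with a cell viability assay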
KM12 = format: functional, cell-based, Homo sapiens; conditions: Homo sapiens, KM12;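 note: KM12 cell growth inhibition, read out with a cell viability assay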
Description: SANGER: Inhibition of human KM12 cell growth in a cell viability assay.

LB831-BLC = format: functional, cell-based, Homo sapiens; conditions: Homo sapiens, LB831-BLC;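 note: growth inhibition of LB831-BLC cells, read out with a cell viability assay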
Description: SANGER: Inhibition of human LB831-BLC cell growth in a cell viability assay.

LNCaP-Clone-FGC = format: functional, cell-based, Homo sapiens; conditions: Homo sapiens, LNCaP-Clone-FGC
LS-123 = format: functional, cell-based, Homo sapiens; conditions: Homo sapiens, LS-123
MC116 = format: functional, cell-based; conditions: Homo sapiens;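 note: growth inhibition of MC116 cells, read out with a cell viability assay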
Description: SANGER: Inhibition of human MC116 cell growth in a cell viability assay.

MFM-223 = format: functional, cell-based, Homo sapiens; conditions: Homo sapiens, MFM-223
Description: SANGER: Inhibition of human MFM-223 cell growth in a cell viability assay.

MOLT-4 = format: functional, cell-based; conditions: Homo sapiens;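 note: growth inhibition of MOLT-4 cells, determined with a cell viability readout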
Description: SANGER: Inhibition of human MOLT-4 cell growth in a cell viability assay.

Mo = format: functional, cell-based; conditions: Homo sapiens
Description: SANGER: Inhibition of human Mo-T cell growth in a cell viability assay.

SNU-5 = format: functional, cell-based; conditions: Homo sapiens;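 note: cell viability readout used to measure growth inhibition in human NCI-SNU-5 cells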
Description: SANGER: Inhibition of human NCI-SNU-5 cell growth in a cell viability assay.

NTERA-2-cl-D1 = format: functional, cell-based, Homo sapiens; conditions: Homo sapiens, NTERA-2-cl-D1;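 note: inhibition of cell growth, measured with a cell viability assay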
Description: SANGER: Inhibition of human NTERA-S-cl-D1 cell growth in a cell viability assay.

OCI-AML2 = format: functional, cell-based; conditions: Homo sapiens;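 note: growth inhibition of OCI-AML2 cells, read out with a cell viability assay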
Description: SANGER: Inhibition of human OCI-AML2 cell growth in a cell viability assay.

SF-539 = format: functional, cell-based, Homo sapiens; conditions: Homo sapiens, SF-539;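 note: Read-out is a cell viability assay, with IC50 reflecting inhibition of cell growth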
Description: SANGER: Inhibition of human SF539 cell growth in a cell viability assay.

SK-MEL-1 = format: functional, cell-based; conditions: Homo sapiens;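 note: growth inhibition of human SK-MEL-1 cells, read out by a cell viability assay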
Description: SANGER: Inhibition of human SK-MEL-1 cell growth in a cell viability assay.

SK-MEL-2 = format: functional, cell-based, Homo sapiens; conditions: Homo sapiens, SK-MEL-2;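 note: growth inhibition of human SK-MEL-2 cells measured with a cell viability assay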
Description: SANGER: Inhibition of human SK-MEL-2 cell growth in a cell viability assay.

SK-NEP-1 = format: functional, cell-based; conditions: Homo sapiens;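 note: growth inhibition of human SK-NEP-1 cells, read out by a cell viability assay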
Description: SANGER: Inhibition of human SK-NEP-1 cell growth in a cell viability assay.

C2BBe1 = format: functional, cell-based, Homo sapiens; conditions: Homo sapiens, C2BBe1;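 note: growth inhibition of C2BBe1 cells, read out through a viability assay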
Description: SANGER: Inhibition of human C2BBe1 cell growth in a cell viability assay.

no-10 = format: functional, cell-based, Homo sapiens; conditions: Homo sapiens;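 note: growth inhibition of no-10 cells, read out with a cell viability assay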
Description: SANGER: Inhibition of human no-10 cell growth in a cell viability assay.

CAS-1 = format: functional, cell-based, Homo sapiens; conditions: Homo sapiens, CAS-1;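 note: growth inhibition of CAS-1 cells, measured with a cell viability assay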

SMILES	IC50 (CW-2)	IC50 (D-336MG)	IC50 (DOHH-2)	IC50 (EM-2)	IC50 (EW-3)	IC50 (GT3TKB)	IC50 (HCC2218)	IC50 (KGN)	IC50 (KM12)	IC50 (LB831-BLC)	IC50 (LNCaP-Clone-FGC)	IC50 (LS-123)	IC50 (MC116)	IC50 (MFM-223)	IC50 (MOLT-4)	IC50 (Mo)	IC50 (SNU-5)	IC50 (NTERA-2-cl-D1)	IC50 (OCI-AML2)	IC50 (SF-539)	also measured
CCc1nc(N)nc(N)c1-c1ccc(Cl)cc1 [PYRIMETHAMINE]	> 20 µM	> 20 µM	> 20 µM	12.4 µM	> 20 µM	> 20 µM	> 20 µM	> 20 µM	2.32 µM	> 20 µM	> 20 µM	> 20 µM	17.9 µM	> 20 µM	5.43 µM	> 20 µM	> 20 µM	> 20 µM	8.5 µM	2.55 µM	IC50 (SK-MEL-1): > 20 µM; IC50 (SK-MEL-2): > 20 µM; IC50 (SK-NEP-1): 1.24 µM; IC50 (C2BBe1): > 20 µM; IC50 (no-10): > 20 µM; IC50 (CAS-1): > 20 µM
O=C(/C=C/c1ccccc1)NC(NC(=S)Nc1cccc2cccnc12)C(Cl)(Cl)Cl (stereo not given) [SALUBRINAL]	> 16 µM	15.1 µM	10.2 µM	> 16 µM	> 16 µM	> 16 µM	> 16 µM	> 16 µM	> 16 µM	> 16 µM	> 16 µM	> 16 µM	11.2 µM	> 16 µM	> 16 µM	> 16 µM	> 16 µM	12.9 µM	15.9 µM	> 16 µM	IC50 (SK-MEL-1): > 16 µM; IC50 (SK-MEL-2): > 16 µM; IC50 (SK-NEP-1): > 16 µM; IC50 (C2BBe1): > 16 µM; IC50 (no-10): > 16 µM; IC50 (CAS-1): > 16 µM
Cc1cc(Nc2cc(N3CCN(C)CC3)nc(Sc3ccc(NC(=O)C4CC4)cc3)n2)n[nH]1 [TOZASERTIB]	> 2 µM	> 2 µM	0.338 µM	0.266 µM	> 2 µM	1.28 µM	> 2 µM	0.9 µM	0.264 µM	> 2 µM	> 2 µM	> 2 µM	0.85 µM	> 2 µM	0.233 µM	> 2 µM	> 2 µM	0.0143 µM	0.644 µM	> 2 µM	IC50 (SK-MEL-1): > 2 µM; IC50 (SK-MEL-2): > 2 µM; IC50 (SK-NEP-1): 1.21 µM; IC50 (C2BBe1): > 2 µM; IC50 (no-10): > 2 µM; IC50 (CAS-1): > 2 µM
CN1CCN(CCOc2cc(OC3CCOCC3)c3c(Nc4c(Cl)ccc5c4OCO5)ncnc3c2)CC1 [SARACATINIB]	> 2 µM	0.503 µM	1.72 µM	0.265 µM	> 2 µM	> 2 µM	> 2 µM	1.28 µM	> 2 µM	> 2 µM	> 2 µM	> 2 µM	> 2 µM	> 2 µM	> 2 µM	> 2 µM	> 2 µM	> 2 µM	> 2 µM	> 2 µM	IC50 (SK-MEL-1): > 2 µM; IC50 (SK-MEL-2): > 2 µM; IC50 (SK-NEP-1): > 2 µM; IC50 (C2BBe1): 1.21 µM; IC50 (no-10): > 2 µM; IC50 (CAS-1): > 2 µM
C=C1C(=O)O[C@@H]2C3O[C@]3(C)CC/C=C(\C)CC[C@@H]12 (stereo not given in full)	> 5 µM	> 5 µM	> 5 µM	> 5 µM	> 5 µM	> 5 µM	> 5 µM	> 5 µM	> 5 µM	> 5 µM	> 5 µM	> 5 µM	> 5 µM	> 5 µM	> 5 µM	> 5 µM	> 5 µM	> 5 µM	> 5 µM	2.47 µM	IC50 (SK-MEL-1): > 5 µM; IC50 (SK-MEL-2): > 5 µM; IC50 (SK-NEP-1): > 5 µM; IC50 (C2BBe1): > 5 µM; IC50 (no-10): 1.34 µM; IC50 (CAS-1): > 5 µM
CO[C@H]1C[C@@H]2CC[C@@H](C)[C@@](O)(O2)C(=O)C(=O)N2CCCC[C@H]2C(=O)O[C@H]([C@H](C)C[C@@H]2CC[C@@H](O)[C@H](OC)C2)CC(=O)[C@H](C)/C=C(\C)[C@@H](O)[C@@H](OC)C(=O)[C@H](C)C[C@H](C)/C=C/C=C/C=C/1C [SIROLIMUS]	> 0.1 µM	> 0.1 µM	0.00335 µM	0.0385 µM	> 0.1 µM	> 0.1 µM	> 0.1 µM	0.0963 µM	> 0.1 µM	> 0.1 µM	> 0.1 µM	> 0.1 µM	0.000985 µM	> 0.1 µM	0.0968 µM	> 0.1 µM	> 0.1 µM	0.000443 µM	> 0.1 µM	< 0.000391 µM	IC50 (SK-MEL-1): > 0.1 µM; IC50 (SK-MEL-2): > 0.1 µM; IC50 (SK-NEP-1): 0.00879 µM; IC50 (C2BBe1): > 0.1 µM; IC50 (no-10): 0.00729 µM; IC50 (CAS-1): > 0.1 µM
CCC(=O)N1CCN(c2ccc(-n3c(=O)ccc4cnc5ccc(-c6cnc7ccccc7c6)cc5c43)cc2C(F)(F)F)CC1 [TORIN1]	> 1.2 µM	0.266 µM	0.00225 µM	0.115 µM	0.217 µM	0.109 µM	0.472 µM	0.0136 µM	0.0764 µM	0.161 µM	> 1.2 µM	0.0594 µM	0.0268 µM	> 1.2 µM	0.0661 µM	> 1.2 µM	0.136 µM	0.0323 µM	0.0287 µM	0.984 µM	IC50 (SK-MEL-1): > 1.2 µM; IC50 (SK-MEL-2): 0.464 µM; IC50 (SK-NEP-1): 0.161 µM; IC50 (C2BBe1): 0.137 µM; IC50 (no-10): 0.0158 µM; IC50 (CAS-1): > 1.2 µM
CNC(=O)c1cc(Oc2ccc(NC(=O)Nc3ccc(Cl)c(C(F)(F)F)c3)cc2)ccn1 [SORAFENIB]	> 4 µM	> 4 µM	> 4 µM	1.36 µM	> 4 µM	> 4 µM	3.12 µM	> 4 µM	1.02 µM	> 4 µM	> 4 µM	> 4 µM	> 4 µM	> 4 µM	> 4 µM	> 4 µM	> 4 µM	> 4 µM	> 4 µM	> 4 µM	IC50 (SK-MEL-1): > 4 µM; IC50 (SK-MEL-2): > 4 µM; IC50 (SK-NEP-1): > 4 µM; IC50 (C2BBe1): > 4 µM; IC50 (no-10): 1.62 µM; IC50 (CAS-1): > 4 µM
CS(=O)(=O)CCNCc1ccc(-c2ccc3ncnc(Nc4ccc(OCc5cccc(F)c5)c(Cl)c4)c3c2)o1 [LAPATINIB]	> 2 µM	> 2 µM	> 2 µM	> 2 µM	> 2 µM	> 2 µM	0.0533 µM	> 2 µM	> 2 µM	> 2 µM	> 2 µM	> 2 µM	> 2 µM	> 2 µM	> 2 µM	> 2 µM	> 2 µM	> 2 µM	> 2 µM	> 2 µM	IC50 (SK-MEL-1): > 2 µM; IC50 (SK-MEL-2): > 2 µM; IC50 (SK-NEP-1): > 2 µM; IC50 (C2BBe1): > 2 µM; IC50 (no-10): > 2 µM; IC50 (CAS-1): > 2 µM
CC1=C2C[C@H]3[C@@H](CC=C4C[C@@H](O)CC[C@@]43C)[C@@H]2CC[C@]12O[C@@H]1C[C@H](C)CN[C@H]1[C@H]2C [CYCLOPAMINE]	> 16 µM	> 16 µM	9.36 µM	> 16 µM	> 16 µM	> 16 µM	> 16 µM	> 16 µM	> 16 µM	> 16 µM	> 16 µM	> 16 µM	> 16 µM	> 16 µM	> 16 µM	> 16 µM	> 16 µM	> 16 µM	> 16 µM	> 16 µM	IC50 (SK-MEL-1): > 16 µM; IC50 (SK-MEL-2): > 16 µM; IC50 (SK-NEP-1): > 16 µM; IC50 (C2BBe1): > 16 µM; IC50 (no-10): 9.9 µM; IC50 (CAS-1): > 16 µM
